Values joined by “and” are separate entries in the source; they are usually repeats but may differ in a detail not shown here. Identical values can stand only once.
Legend:
stHIV-A19 = experiment: Multi-round replication assay of stHIV-A19 in pigtail macaque PBMCs (PERT readout); format: cell-based, simian-tropic HIV-1; details: for mean EC95 against stHIV-A19 in pigtail macaque PBMC: PTM PBMCs, three donors, RT in supernatant at 7 days, calculated from EC50 with Hill coefficient 3.51
Procedure: Infectious stocks of stHIV-A19,[23] HIV-1 NL4-3, and SIVmac239 were produced in HEK-293T (RRID: CVCL_1926) cells transfected with full-length viral genome plasmids using the TransIT HEK-293 transfection reagent (Mirus Bio) according to the manufacturer’s instructions. Virus stock infectious titres were determined on TZM-bl reporter cells (RRID: CVCL_B478) as previously described.[26] For experiments using SupT1-CCR5 target cells (RRID: CVCL_X633),[27] cultures were maintained in RPMI 1640 medium supplemented with 10% foetal bovine serum (FBS), 2 mM glutamine, 100 U/ml penicillin, and 100 μg/ml streptomycin. SupT1-CCR5 cells were inoculated with stHIV-A19, HIV-1 NL4-3, or SIVmac239 at a multiplicity of infection (MOI) = 0.0125 and cultured at 37 °C for 4 h. Cells were then washed three times to remove input virus, counted, and cultured in triplicate in growth media containing serial threefold dilutions of LEN or no LEN (control). The concentration of DMSO (LEN vehicle) was maintained at 0.5% for all cultures. Culture supernatants were collected 7 days post-inoculation, clarified by centrifugation, and stored at −80 °C for later quantification of vRNA by quantitative reverse transcription polymerase chain reaction (qRT-PCR). Primary human peripheral blood mononuclear cells (PBMCs) from anonymous HIV-negative donors were isolated from leukopaks obtained from the New York Blood Center for experiments using primary human and PTM PBMC. […] The stHIV-A19 stock was quantified with a SYBR Green-based qPCR-based product-enhanced RT (PERT) assay using a purified reverse transcriptase (RT) protein standard, as previously described.[28] […] After 7 days, the virus in culture supernatants was quantified using the PERT assay. […] The EC95 for LEN against stHIV-A19 was then calculated from its corresponding EC50 values using the ECanything equation: ECF = EC50 × (F/100-F)^1/n, where F equals the percent response (e.g., 95) and n equals the Hill coefficient for LEN (n = 3.51) as previously described.[16]

HIV-1 = test system: HIV-1; parameters: method as in PMID 32612233; details: people with HIV-1, monotherapy, 450 mg, after 9 days of treatment; cited from earlier work
SIVmac239 = experiment: Multi-round viral replication assay in SupT1-CCR5 cells, SIVmac239; format: cell-based, SIV
Procedure: Infectious stocks of stHIV-A19,[23] HIV-1 NL4-3, and SIVmac239 were produced in HEK-293T (RRID: CVCL_1926) cells transfected with full-length viral genome plasmids using the TransIT HEK-293 transfection reagent (Mirus Bio) according to the manufacturer’s instructions. Virus stock infectious titres were determined on TZM-bl reporter cells (RRID: CVCL_B478) as previously described.[26] For experiments using SupT1-CCR5 target cells (RRID: CVCL_X633),[27] cultures were maintained in RPMI 1640 medium supplemented with 10% foetal bovine serum (FBS), 2 mM glutamine, 100 U/ml penicillin, and 100 μg/ml streptomycin. […] Cells were then washed three times to remove input virus, counted, and cultured in triplicate in growth media containing serial threefold dilutions of LEN or no LEN (control). […] Culture supernatants were collected 7 days post-inoculation, clarified by centrifugation, and stored at −80 °C for later quantification of vRNA by quantitative reverse transcription polymerase chain reaction (qRT-PCR). […] The stHIV-A19 stock was quantified with a SYBR Green-based qPCR-based product-enhanced RT (PERT) assay using a purified reverse transcriptase (RT) protein standard, as previously described.[28] […] After 7 days, the virus in culture supernatants was quantified using the PERT assay. […]

CC(C)(C#Cc1ccc(-c2ccc(Cl)c3c(NS(C)(=O)=O)nn(CC(F)(F)F)c23)c([C@H](Cc2cc(F)cc(F)c2)NC(=O)Cn2nc(C(F)(F)F)c3c2C(F)(F)[C@@H]2C[C@H]32)n1)S(C)(=O)=O [LEN, Lenacapavir]
plasma protein binding-adjusted EC95 (PA-EC95) against stHIV-A19 in PTMs (stHIV-A19; EC95 in PTM PBMC adjusted by 9.7-fold plasma shift): 1.46 (±0.07 SD) nM and 1.46 nM
mean EC95 against stHIV-A19 in pigtail macaque PBMC (stHIV-A19): 149 ± 7 pM
mean EC95 against stHIV-A19 in pigtail macaque PBMC (stHIV-A19; listed as Lenacapavir): 149 (±7 SD) pM
maximum reductions in plasma viral loads (HIV-1): > 100 fold
reduced potency against SIVmac239 compared with HIV-1 NL4-3 and stHIV-A19 (SIVmac239): approximately 6 fold
EC50 (SIVmac239; Simian immunodeficiency virus, 168 h, supernatant vRNA 7 days post-infection, mean ± SD of three independent experiments, read-out: mean EC50 against SIVmac239): 0.502 nM

From article PMC10470178, “Long-acting lenacapavir protects macaques against intravenous challenge with simian-tropic HIV” (eBioMedicine, 2023)
